Test system: 377384-186-R-J1-PDC complex spheroid viability
Assay: Anticancer human tumor 377384-186-R-J1-PDC patient-derived pancreatic carcinoma cell line growth inhibition [RAS]
Conditions: for IC50: curve of first compound; for viability, T/C: stronger effect = lower value; active = viability on the fitted dose curve at most 10% of control; inactive = the rest
In short: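 Multi-cell-type spheroids: tumor cells plus HUVEC endothelial cells and mesenchymal stem cells. RAS-pathway inhibitors were combined with targeted agents, each dosed in half-log steps down from clinical Cmax, or from 10 microM when Cmax was unknown.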

[1] = second compound 0.000949 µM, first compound 0.0316 µM
[2] = second compound 0.000949 µM, first compound 0.1 µM
[3] = second compound 0.000949 µM, first compound 0.316 µM
[4] = second compound 0.000949 µM, first compound 1 µM
[5] = second compound 0.000949 µM, first compound 3.16 µM
[6] = second compound 0.000949 µM, first compound 10 µM
[7] = second compound 0.003 µM, first compound 0.0316 µM
[8] = second compound 0.003 µM, first compound 0.1 µM
[9] = second compound 0.003 µM, first compound 0.316 µM
[10] = second compound 0.003 µM, first compound 1 µM
[11] = second compound 0.003 µM, first compound 3.16 µM
[12] = second compound 0.003 µM, first compound 10 µM
[13] = second compound 0.00949 µM, first compound 0.0316 µM
[14] = second compound 0.00949 µM, first compound 0.1 µM
[15] = second compound 0.00949 µM, first compound 0.316 µM
[16] = second compound 0.00949 µM, first compound 1 µM
[17] = second compound 0.00949 µM, first compound 3.16 µM
[18] = second compound 0.00949 µM, first compound 10 µM
[19] = second compound 0.03 µM, first compound 0.0316 µM
[20] = second compound 0.03 µM, first compound 0.1 µM
[21] = second compound 0.03 µM, first compound 0.316 µM
[22] = second compound 0.03 µM, first compound 1 µM
[23] = second compound 0.03 µM, first compound 3.16 µM
[24] = second compound 0.03 µM, first compound 10 µM
[25] = second compound 0.0949 µM, first compound 0.0316 µM
[26] = second compound 0.0949 µM, first compound 0.1 µM
[27] = second compound 0.0949 µM, first compound 0.316 µM
[28] = second compound 0.0949 µM, first compound 1 µM
[29] = second compound 0.0949 µM, first compound 3.16 µM
[30] = second compound 0.0949 µM, first compound 10 µM
[31] = second compound 0.3 µM, first compound 0.0316 µM
[32] = second compound 0.3 µM, first compound 0.1 µM
[33] = second compound 0.3 µM, first compound 0.316 µM
[34] = second compound 0.3 µM, first compound 1 µM
[35] = second compound 0.3 µM, first compound 3.16 µM
[36] = second compound 0.3 µM, first compound 10 µM
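Note: spheroids exposed to compounds for seven days before readout.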

CC(C)NCC(C(=O)N1CCN(c2ncnc3c2C(C)CC3O)CC1)c1ccc(Cl)cc1 (stereo not drawn) + CCn1c(-c2cc(N3CCN(C)CC3)cnc2C(C)OC)c2c3cc(ccc31)-c1csc(n1)CC(NC(=O)C1CC1C)C(=O)N1CCCC(N1)C(=O)OCC(C)(C)C2
126 nM: IC50 (second compound 0.000949 µM)
inactive: viability, T/C [1] 60.4% | viability, T/C [2] 54.6% | viability, T/C [3] 38.6% | viability, T/C [4] 34.1% | viability, T/C [5] 34.1% | viability, T/C [6] 19% | viability, T/C [7] 19.6% | viability, T/C [8] 21.2% | viability, T/C [9] 17.9% | viability, T/C [10] 16.4% | viability, T/C [11] 12.7%
active: viability, T/C [12] 8.24% | viability, T/C [13] 5.67% | viability, T/C [14] 5.95% | viability, T/C [15] 5.17% | viability, T/C [16] 7.15% | viability, T/C [17] 6.27% | viability, T/C [18] 3.27% | viability, T/C [19] 3.25% | viability, T/C [20] 2.3% | viability, T/C [21] 2.13% | viability, T/C [22] 1.68% | viability, T/C [23] 1.07% | viability, T/C [24] 0.92% | viability, T/C [25] 1.84% | viability, T/C [26] 1.86% | viability, T/C [27] 1.46% | viability, T/C [28] 1.22% | viability, T/C [29] 0.74% | viability, T/C [30] 0.17% | viability, T/C [31] 2% | viability, T/C [32] 2.02% | viability, T/C [33] 1.61% | viability, T/C [34] 0.77% | viability, T/C [35] 0.64% | viability, T/C [36] 0.3%
< 31.6 nM: IC50 (second compound 0.003 µM) | IC50 (second compound 0.00949 µM) | IC50 (second compound 0.03 µM) | IC50 (second compound 0.0949 µM) | IC50 (second compound 0.3 µM)

CC(C)n1nc(-c2ccc3oc(N)nc3c2)c2c(N)ncnc21 + CCn1c(-c2cc(N3CCN(C)CC3)cnc2C(C)OC)c2c3cc(ccc31)-c1csc(n1)CC(NC(=O)C1CC1C)C(=O)N1CCCC(N1)C(=O)OCC(C)(C)C2
0.989 nM: IC50 (second compound 0.000949 µM)
inactive: viability, T/C (second compound 0.000949 µM, first compound 0.000316 µM) 48.6% | viability, T/C (second compound 0.000949 µM, first compound 0.001 µM) 57.8% | viability, T/C (second compound 0.000949 µM, first compound 0.00316 µM) 35.5% | viability, T/C (second compound 0.000949 µM, first compound 0.01 µM) 26.4% | viability, T/C [1] 16.2% | viability, T/C [2] 10.3% | viability, T/C (second compound 0.003 µM, first compound 0.000316 µM) 20.1% | viability, T/C (second compound 0.003 µM, first compound 0.001 µM) 24.1% | viability, T/C (second compound 0.003 µM, first compound 0.00316 µM) 17.6% | viability, T/C (second compound 0.003 µM, first compound 0.01 µM) 13.7%
active: viability, T/C [7] 8.27% | viability, T/C [8] 4.84% | viability, T/C (second compound 0.00949 µM, first compound 0.000316 µM) 4.46% | viability, T/C (second compound 0.00949 µM, first compound 0.001 µM) 4.86% | viability, T/C (second compound 0.00949 µM, first compound 0.00316 µM) 4.1% | viability, T/C (second compound 0.00949 µM, first compound 0.01 µM) 5.4% | viability, T/C [13] 4.11% | viability, T/C [14] 2.39% | viability, T/C (second compound 0.03 µM, first compound 0.000316 µM) 2.29% | viability, T/C (second compound 0.03 µM, first compound 0.001 µM) 2.17% | viability, T/C (second compound 0.03 µM, first compound 0.00316 µM) 2.37% | viability, T/C (second compound 0.03 µM, first compound 0.01 µM) 1.66% | viability, T/C [19] 1.3% | viability, T/C [20] 0.91% | viability, T/C (second compound 0.0949 µM, first compound 0.000316 µM) 1.81% | viability, T/C (second compound 0.0949 µM, first compound 0.001 µM) 2.1% | viability, T/C (second compound 0.0949 µM, first compound 0.00316 µM) 2.12% | viability, T/C (second compound 0.0949 µM, first compound 0.01 µM) 1.18% | viability, T/C [25] 0.96% | viability, T/C [26] 0.58% | viability, T/C (second compound 0.3 µM, first compound 0.000316 µM) 1.71% | viability, T/C (second compound 0.3 µM, first compound 0.001 µM) 1.54% | viability, T/C (second compound 0.3 µM, first compound 0.00316 µM) 1.69% | viability, T/C (second compound 0.3 µM, first compound 0.01 µM) 1.04% | viability, T/C [31] 0.89% | viability, T/C [32] 0.59%
< 0.316 nM: IC50 (second compound 0.003 µM) | IC50 (second compound 0.00949 µM) | IC50 (second compound 0.03 µM) | IC50 (second compound 0.0949 µM) | IC50 (second compound 0.3 µM)

CC(Nc1ccc2c(c1)OCCn1cc(N3C(=O)OCC3C(F)F)nc1-2)C(N)=O (stereo not drawn) + CCn1c(-c2cc(N3CCN(C)CC3)cnc2C(C)OC)c2c3cc(ccc31)-c1csc(n1)CC(NC(=O)C1CC1C)C(=O)N1CCCC(N1)C(=O)OCC(C)(C)C2
inactive: viability, T/C [1] 38.5% | viability, T/C [2] 27% | viability, T/C [3] 20.7% | viability, T/C [4] 14.9% | viability, T/C [5] 15.3% | viability, T/C [6] 10% | viability, T/C [7] 16.6% | viability, T/C [8] 13.9%
< 31.6 nM: IC50 (second compound 0.000949 µM) | IC50 (second compound 0.003 µM) | IC50 (second compound 0.00949 µM) | IC50 (second compound 0.03 µM) | IC50 (second compound 0.0949 µM) | IC50 (second compound 0.3 µM)
active: viability, T/C [9] 6.73% | viability, T/C [10] 6.02% | viability, T/C [11] 4.06% | viability, T/C [12] 4.35% | viability, T/C [13] 4.34% | viability, T/C [14] 2.53% | viability, T/C [15] 3.61% | viability, T/C [16] 1.94% | viability, T/C [17] 1.23% | viability, T/C [18] 0.59% | viability, T/C [19] 1.88% | viability, T/C [20] 1.58% | viability, T/C [21] 0.84% | viability, T/C [22] 0.45% | viability, T/C [23] 0.4% | viability, T/C [24] 0.18% | viability, T/C [25] 1.11% | viability, T/C [26] 0.55% | viability, T/C [27] 0.59% | viability, T/C [28] 0.36% | viability, T/C [29] 0.09% | viability, T/C [30] 0.09% | viability, T/C [31] 1.13% | viability, T/C [32] 0.5% | viability, T/C [33] 0.4% | viability, T/C [34] 0.29% | viability, T/C [35] 0.21% | viability, T/C [36] 0.14%

C[C@@H](NC(=O)c1ncnc(N)c1Cl)c1ncc(C(=O)Nc2cc(C(F)(F)F)c(Cl)cn2)s1 + CCn1c(-c2cc(N3CCN(C)CC3)cnc2C(C)OC)c2c3cc(ccc31)-c1csc(n1)CC(NC(=O)C1CC1C)C(=O)N1CCCC(N1)C(=O)OCC(C)(C)C2
< 31.6 nM: IC50 (second compound 0.003 µM) | IC50 (second compound 0.00949 µM) | IC50 (second compound 0.03 µM) | IC50 (second compound 0.0949 µM) | IC50 (second compound 0.3 µM)
> 10000 nM: IC50 (second compound 0.000949 µM)
active: viability, T/C [19] 2.09% | viability, T/C [20] 2.73% | viability, T/C [21] 3.94% | viability, T/C [22] 4.72% | viability, T/C [23] 3.74% | viability, T/C [24] 2.97% | viability, T/C [25] 2.41% | viability, T/C [26] 2.22% | viability, T/C [27] 2.96% | viability, T/C [28] 3.02% | viability, T/C [29] 2.41% | viability, T/C [30] 1.87% | viability, T/C [31] 1.66% | viability, T/C [32] 2.36% | viability, T/C [33] 2.7% | viability, T/C [34] 2.88% | viability, T/C [35] 2.27% | viability, T/C [36] 2.12%
inactive: viability, T/C [1] 60.5% | viability, T/C [2] 68% | viability, T/C [3] 62.4% | viability, T/C [4] 69.9% | viability, T/C [5] 65.2% | viability, T/C [6] 49% | viability, T/C [7] 39.1% | viability, T/C [8] 36.5% | viability, T/C [9] 34.7% | viability, T/C [10] 40.3% | viability, T/C [11] 29.3% | viability, T/C [12] 19.9% | viability, T/C [13] 8.23% | viability, T/C [14] 12.1% | viability, T/C [15] 12.7% | viability, T/C [16] 11.6% | viability, T/C [17] 14% | viability, T/C [18] 11.2%

From PubChem BioAssay AID2060903 (Molecular Pharmacology Branch, DTP, NCI, 2025)
